Assay results from patent US20240197716A1, “TREATMENTS FOR CUSHING'S SYNDROME THAT DO NOT SIGNIFICANTLY AFFECT CARDIAC RHYTHMS” (Corcept Therapeutics Incorporated, priority 2022, published 2024).
Like-named read-outs stand apart in the source and are kept apart here.

How the values were obtained:
healthy volunteers = experiment: First-in-Human SAD/MAD study (NCT03508635), ECG / QTcF; format: in vivo; conditions: for placebo-corrected predicted change in QTc at Cmax: doses of 50, 150, 250 and 500 mg
Protocol: (§1) A phase 1, 3-part, single-center, First-in-Human study (NCT03508635) included 103 healthy volunteers who received single or multiple ascending doses (SAD/MAD) of relacorilant (up to 500 mg QD) for up to 14 days; 24 received placebo.
(§2) In all studies, ECG data were collected and the heart rate-corrected QT interval using Fridericia's formula (QTcF) was calculated. Participants with a family history of or risk factors for torsades de pointes or with a prolonged QT interval at screening were not eligible to participate. Exposure-response analysis of the effect of relacorilant on the heart-rate corrected QT interval (QTc) was conducted using a linear model with an intercept.
(§3) In a 3-part, single-center, First-in-Human study (NCT03508635, “phase 1 study”), 103 healthy volunteers received single or multiple ascending doses of relacorilant (up to 500 mg QD) for up to 14 days; 24 received placebo. In a randomized, partial double-blind, crossover Thorough QT study (NCT04795479, “TQT study”), the effect of multiple therapeutic (400 mg QD, n=25) and supra-therapeutic (800 mg QD, n=28) doses of relacorilant on cardiac repolarization was studied in healthy volunteers. A single dose of moxifloxacin (400 mg, n=28) was used as a positive control; 29 participants received placebo. In a single-arm, open-label phase 2 study (NCT02804750, “CS study”), 17 patients with CS received low-dose relacorilant (100-200 mg QD) for 12 weeks and 18 patients received high-dose relacorilant (250-400 mg QD) for 16 weeks. In all studies, ECG data were collected, and the heart rate-corrected QT interval using Fridericia's formula (QTcF) was assessed.
ECG data were available from 42 and 12 participants randomized to relacorilant or placebo, respectively, during the single ascending dose (SAD) phase, and from 34 and 12 participants randomized to relacorilant or placebo, respectively, during the multiple ascending dose (MAD) phase. Baseline mean (SD) QTcF values were within expectations for a healthy population (range […] (11.7) msec to 403.5 (9.4) msec) and were similar in the respective relacorilant and placebo cohorts during the SAD and MAD study phases (see Table 1) (where the value in parentheses indicates standard deviation).

[1] = Plasma concentrations in TQT study (LC-MS/MS, non-compartmental PK); format: in vivo, human; conditions: for Cmax: human, plasma, oral, Day 5, read-out: Geometric Mean Cmax
Protocol: PK analyses were performed using non-compartmental methods to obtain estimates of the following parameters, where possible: […] Day 1: Cmax, Tmax, AUClast, and AUC0-24; Day 5: Cmax, Tmax, Cmin, AUClast, AUC0-tau, Cavg, FI, and AR. For moxifloxacin: Cmax, Tmax, AUClast, and AUC0-24. […] PK blood sampling for Day 1 was completed prior to dosing on Day 2.

patients with CS = experiment: Phase 2 CS study (NCT02804750), ECG / QTcF; format: in vivo, human
Protocol: A single-arm, open-label phase 2 study (NCT02804750) in patients with CS. 17 patients received low-dose relacorilant (100-200 mg QD) for 12 weeks; 18 patients received high-dose relacorilant (250-400 mg QD) for 16 weeks.
as §2, §3

[2] = Effect of food on relacorilant Cmax; format: in vivo
[3] = system: Cushing's syndrome patients; experiment: Separate study: relacorilant with another drug known to cause QT prolongation; format: in vivo, human; conditions: at least 12 patients also receiving fluoroquinoline, imidazole derivative, macrolide or protease inhibitor drug
[4] = human, in vivo
Protocol: as §1
Relacorilant plasma concentration and QTcF data in the SAD and MAD phases were best fit with a linear model with treatment-specific intercepts. For both phases, the model-estimated slopes (90% CI) were slightly negative (SAD: −0.59[−2.14, 0.97]×10^−3 msec/ng/ml; MAD: −2.34[−3.16 to −1.52]×10^−3 msec/ng/ml). Therefore, a concentration-dependent effect of relacorilant on QTc prolongation was not identified.

[5] = MAD, concentration-QTc linear model, FIG. 2B
[6] = SAD, concentration-QTc linear model, FIG. 2A

Which results are given for `Cn1cc(S(=O)(=O)N2CCC3=Cc4c(cnn4-c4ccc(F)cc4)C[C@]3(C(=O)c3cc(C(F)(F)F)ccn3)C2)cn1` [relacorilant, ((R)-(1-(4-fluorophenyl)-6-((1-methyl-1H-pyrazol-4-yl)sulfonyl)-4,4a,5,6,7,8-hexahydro-1H-pyrazolo[3,4-g]isoquinolin-4a-yl)(4-(trifluoromethyl)pyridine-2-yl)methanone)]?
MAD equation ΔΔQTcF intercept (healthy volunteers; [5]): -1.804 ms; MAD equation ΔΔQTcF slope versus relacorilant concentration (healthy volunteers; [5]): -0.00234 ms/ng/mL; placebo-corrected predicted change in QTc at Cmax (healthy volunteers; MAD, FIG. 2B): less than 10 ms; mean ΔΔQTcF at any time point (healthy volunteers; SAD and MAD study phases, all doses): ≤ 5 ms; SAD equation ΔΔQTcF intercept (healthy volunteers; [6]): -0.005 ms; SAD equation ΔΔQTcF slope versus relacorilant concentration (healthy volunteers; [6]): -0.000588 ms/ng/mL; placebo-corrected predicted change in QTc at Cmax (healthy volunteers; SAD, FIG. 2A): less than 5 ms; Mean placebo-corrected ΔQTcF (ΔΔQTcF) at any time point (healthy volunteers; any of the dosing groups): ≤ 3 ms; prolonging effect on ΔΔQTcF exceeding the 10-msec threshold (healthy volunteers; modeled SAD and MAD results, plasma concentrations up to approximately 4000 ng/ml): excluded; instances of post-dose QTcF interval>450 ms or QTcF interval increase of >30 ms (healthy volunteers; up to 500 mg QD): No instances; effect on ECG parameters (healthy volunteers; up to 500 mg daily): did not have a clinically relevant adverse effect on ECG parameters; Cmax ([1]; 400 mg QD): 1830 ng/mL; Cmax ([1]; 800 mg QD): 2710 ng/mL; observed range of plasma concentrations, upper end ([1]; supra-therapeutic dosing (800 mg)): ~4500 ng/mL; hypokalemia (patients with CS; CS study): no instances; abnormal sinus tachycardia, post-baseline ECG finding (patients with CS; high-dose group): 11.1%; abnormal sinus tachycardia, post-baseline ECG finding (patients with CS; high-dose group (18 patients)): 2 patients; change in median QTcF (patients with CS; high-dose group, 250 to 400 mg/day, FIG. 6B): No significant changes; abnormal sinus tachycardia, post-baseline ECG finding (patients with CS; low-dose group): 17.6%; abnormal sinus tachycardia, post-baseline ECG finding (patients with CS; low-dose group (17 patients)): 3 patients; change in median QTcF (patients with CS; low-dose group, 100 to 200 mg/day, FIG. 6A): No significant changes; increase of Cmax relative to fasting conditions ([2]; high-fat breakfast): approximately 34%; increase of Cmax relative to fasting conditions ([2]; moderate-fat breakfast): ~41%; QT prolongation [3]: no clinically significant QT prolongation; observed range of plasma concentrations, upper end [4]: approximately 4000 ng/ml; time of Cmax [4]: 2 h
